In US9079922B2, “2-oxo-oxazolidin-3,5-diyl antibiotic derivatives” (priority 2011, dated 2015) one finds MIC data, which are given here for 6 molecules.

For test [1], the system named is Acinetobacter baumanii T6474. Briefly: Bacterial growth minimal inhibitory concentration (microdilution, cation-adjusted Mueller-Hinton Broth). It is filed as cell-based. Conditions: Acinetobacter baumannii, multiply-resistant strain, in particular quinolone resistant. The method, then:
(§1) Bacterial Growth Minimal Inhibitory Concentrations:
(§2) Minimal inhibitory concentrations (MICs; mg/l) were determined in cation-adjusted Mueller-Hinton Broth by a microdilution method following the description given in “Methods for Dilution Antimicrobial Susceptibility Tests for Bacteria that Grow Aerobically”, Approved standard, 7th ed., Clinical and Laboratory Standards Institute (CLSI) Document M7-A7, Wayne, Pa., USA, 2006.
(§3) All Example compounds were tested against several Gram positive and Gram negative bacteria. Staphylococcus aureus A798 and Acinetobacter baumanii T6474 are multiply-resistant strains, in particular quinolone resistant.

The subject of test [2] is Staphylococcus aureus A798. Described as above. It is filed as cell-based. Conditions: multiply-resistant strain, in particular quinolone resistant, read-out: MIC for S. aureus A798. The method, then: as §1, §2, §3

≈ marks a conversion by molar mass, not a printed value.

Usually MIC stands for the lowest concentration found to suppress growth. On to `O=C1COc2ccc(N3C[C@H](CN4CCN(c5nc6c(cc5F)c(=O)c(C(=O)O)cn6C5CC5)CC4)OC3=O)nc2N1` [Example 19, 1-cyclopropyl-6-fluoro-4-oxo-7-{4-[(S)-2-oxo-3-(3-oxo-3,4-dihydro-2H-pyrido[3,2-b][1,4]oxazin-6-yl)-oxazolidin-5-ylmethyl]-piperazin-1-yl}-1,4-dihydro-[1,8]naphthyridine-3-carboxylic acid], for which the MIC was 0.063 µg/mL (≈ 0.109 µM) in test [1] and no more than 0.016 µg/mL in test [2].

Regarding `O=C1COc2ccc(N3C[C@H](CNC4CCN(c5nc6c(cc5F)c(=O)c(C(=O)O)cn6C5CC5)CC4)OC3=O)nc2N1` [Example 20, 1-cyclopropyl-6-fluoro-4-oxo-7-(4-{[(S)-2-oxo-3-(3-oxo-3,4-dihydro-2H-pyrido[3,2-b][1,4]oxazin-6-yl)-oxazolidin-5-ylmethyl]-amino}-piperidin-1-yl)-1,4-dihydro-[1,8]naphthyridine-3-carboxylic acid], the MIC in test [1] and in test [2] was no more than 0.016 µg/mL each time.

In the case of `O=C1COc2ccc(N3C[C@H](CNC[C@@H]4CCN(c5nc6c(cc5F)c(=O)c(C(=O)O)cn6C5CC5)C4)OC3=O)nc2N1` [Example 22, 1-cyclopropyl-6-fluoro-4-oxo-7-[(S)-3-({[(S)-2-oxo-3-(3-oxo-3,4-dihydro-2H-pyrido[3,2-b][1,4]oxazin-6-yl)-oxazolidin-5-ylmethyl]-amino}-methyl)-pyrrolidin-1-yl]-1,4-dihydro-[1,8]naphthyridine-3-carboxylic acid], the minimal inhibitory concentration (MIC) in test [1] came out at 0.031 µg/mL (≈ 0.0522 µM); in test [2], 0.125 µg/mL (≈ 0.211 µM).

On to `O=C1COc2ccc(N3C[C@H](CNC4CCN(c5nc6c(cc5F)c(=O)c5c(O)nsc5n6C5CC5)CC4)OC3=O)nc2N1` [Example 23, 9-cyclopropyl-6-fluoro-3-hydroxy-7-(4-{[(S)-2-oxo-3-(3-oxo-3,4-dihydro-2H-pyrido[3,2-b][1,4]oxazin-6-yl)-oxazolidin-5-ylmethyl]-amino}-piperidin-1-yl)-9H-1-thia-2,8,9-triaza-cyclopenta[b]naphthalen-4-one], for which the MIC in test [1] and in test [2] was no more than 0.016 µg/mL throughout.

With `O=C1COc2ccc(N3C[C@H](CNC4CN(c5nc6c(cc5F)c(=O)c5c(O)nsc5n6C5CC5)C4)OC3=O)nc2N1` [Example 24, 9-cyclopropyl-6-fluoro-3-hydroxy-7-(3-{[(S)-2-oxo-3-(3-oxo-3,4-dihydro-2H-pyrido[3,2-b][1,4]oxazin-6-yl)-oxazolidin-5-ylmethyl]-amino}-azetidin-1-yl)-9H-1-thia-2,8,9-triaza-cyclopenta[b]naphthalen-4-one], the MIC in test [1] was 0.063 µg/mL (≈ 0.106 µM); in test [2] it was no more than 0.016 µg/mL.

With `O=C1COc2ccc(N3C[C@H](CN4CCN(c5nc6c(cc5F)c(=O)c5c(O)nsc5n6C5CC5)CC4)OC3=O)nc2N1` [Example 25, 9-cyclopropyl-6-fluoro-3-hydroxy-7-{4-[(S)-2-oxo-3-(3-oxo-3,4-dihydro-2H-pyrido[3,2-b][1,4]oxazin-6-yl)-oxazolidin-5-ylmethyl]-piperazin-1-yl}-9H-1-thia-2,8,9-triaza-cyclopenta[b]naphthalen-4-one], the MIC is 0.125 µg/mL (≈ 0.205 µM) in test [1] and no more than 0.016 µg/mL in test [2].
